Counter-ions that a name gives are not always drawn. Like-named read-outs stand apart in the source and are kept apart here.
Tests used:
OAT3 [1] = target: T1, OAT3 (Mus musculus, UniProt O88909); assay: Plasma metabolomics profiling of Oat3KO versus wild-type mice; settings: Oat3KO vs wild type mice
T1 sequence (O88909 1-537): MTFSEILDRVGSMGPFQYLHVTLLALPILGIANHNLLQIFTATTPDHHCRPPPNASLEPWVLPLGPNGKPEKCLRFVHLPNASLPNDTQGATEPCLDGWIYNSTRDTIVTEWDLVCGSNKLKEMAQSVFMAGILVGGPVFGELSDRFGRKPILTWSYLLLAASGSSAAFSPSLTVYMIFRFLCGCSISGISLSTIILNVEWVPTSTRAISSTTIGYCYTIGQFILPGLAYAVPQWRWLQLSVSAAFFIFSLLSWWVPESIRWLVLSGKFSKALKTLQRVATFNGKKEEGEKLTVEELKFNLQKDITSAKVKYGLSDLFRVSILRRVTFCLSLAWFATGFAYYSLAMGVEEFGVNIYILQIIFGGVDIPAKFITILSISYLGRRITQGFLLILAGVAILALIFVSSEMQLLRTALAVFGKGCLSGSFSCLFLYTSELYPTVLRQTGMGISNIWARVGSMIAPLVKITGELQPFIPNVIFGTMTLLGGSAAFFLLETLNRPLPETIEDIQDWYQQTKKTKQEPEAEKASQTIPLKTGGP

OAT3 [2] = target: T1, OAT3; assay: cell-based
OAT1 [3] = target: T2, OAT1 (Mus musculus, UniProt Q8VC69)
T2 sequence (Q8VC69 1-545): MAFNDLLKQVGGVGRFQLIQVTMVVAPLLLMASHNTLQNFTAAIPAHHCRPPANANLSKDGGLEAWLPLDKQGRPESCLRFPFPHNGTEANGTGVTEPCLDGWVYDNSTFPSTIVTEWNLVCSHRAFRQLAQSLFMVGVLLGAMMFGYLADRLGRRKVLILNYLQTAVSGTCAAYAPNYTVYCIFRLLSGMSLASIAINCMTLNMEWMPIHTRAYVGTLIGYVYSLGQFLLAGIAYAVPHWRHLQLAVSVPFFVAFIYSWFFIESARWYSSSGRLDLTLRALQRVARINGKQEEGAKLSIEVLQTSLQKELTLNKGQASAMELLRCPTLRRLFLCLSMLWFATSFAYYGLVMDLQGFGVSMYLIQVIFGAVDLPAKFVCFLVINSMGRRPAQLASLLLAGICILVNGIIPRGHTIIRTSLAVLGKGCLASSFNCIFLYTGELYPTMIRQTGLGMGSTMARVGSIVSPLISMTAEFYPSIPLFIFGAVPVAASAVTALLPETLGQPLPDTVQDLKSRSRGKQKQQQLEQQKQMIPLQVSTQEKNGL

OAT1 [4] = target: T2, OAT1; assay: Uptake inhibition assay in Oat1-transfected CHO cells (6-carboxyfluorescein tracer); assay type: cell-based; parameters: expressed in transfected cells; host or cells: CHO cells; settings: for Ki: read-out: calculated Ki; for interaction with OAT1 in in vitro assays: set of 8 predicted metabolites tested
Procedure: (A) The IC50 curves for the metabolites characterized in the in vitro uptake inhibition assay using CHO stably expressing Oat1. […] (B) The table summarizes the calculated Ki and metabolic pathways the characterized metabolites were involved in.
Oat1-transfected CHO cells cultured on 96-well plates were incubated in the presence of 10 μM 6-carboxyfluorescein with or without individual metabolites (with controls treated with the OAT1 inhibitor probenecid). The IC50 curves for novel ligands were plotted in Prism Software (GraphPad Inc., San Diego, Calif.), and the IC50 values were converted to Ki (inhibition affinity) using the Cheng-Prusoff equation.

OAT3 [5] = target: T1, OAT3; settings: OAT3-expressing cells; 5-carboxyfluorescein as fluorescent tracer
OAT1 [6] = target: T2, OAT1; assay: Uptake inhibition assay, CHO cells constitutively expressing mouse Oat1; settings: 6-carboxyfluorescein as fluorescent tracer
OAT3 [7] = target: T1, OAT3; settings: in vivo
OAT1 [8] = target: T2, OAT1; assay: cell-based
OAT1 [9] = target: T2, OAT1; settings: OAT1 vs OAT3; cited from earlier work
[10] = statistical significance not achieved

Cc1ccc(O[C@@H]2O[C@H](C(=O)O)[C@@H](O)[C@H](O)[C@H]2O)cc1 [p-cresol-glucuronide]
change in plasma of the Oat3KO (OAT3 [1]): significantly increased

O=C(O)CCCCCCCCC(=O)O [sebacate]
change in plasma of the Oat3KO (OAT3 [1]): altered

O=S(=O)(O)Oc1ccccc1 [phenol sulfate]
change in plasma of the Oat3KO (OAT3 [1]): significantly increased

C[C@H](CCC(=O)O)[C@H]1CC[C@H]2[C@@H]3C(=O)C[C@@H]4C[C@H](O)CC[C@]4(C)[C@H]3C[C@H](O)[C@]12C [7-ketodeoxycholate]
change in plasma of the Oat3KO (OAT3 [1]): significantly increased

OC(CNCC(O)C1CCc2cc(F)ccc2O1)C1CCc2cc(F)ccc2O1 (stereo not drawn) [Nebivolol]
IC50 (OAT3 [2]): 169 µM
IC50 OAT1 (OAT1 [3]): No significant

CCCCCCCCC(O)C(=O)O (stereo not drawn) [2-hydroxydecanoate]
change in plasma of the Oat3KO (OAT3 [1]): altered

CCCC(O)CC(=O)O (stereo not drawn) [3-hydroxyhexanoate]
change in plasma of the Oat3KO (OAT3 [1]): altered

Nc1nc2c(c(=O)[nH]1)N=C(CNc1ccc(C(=O)N[C@@H](CCC(=O)O)C(=O)O)cc1)CN2 [dihydrofolic acid]
Ki (OAT1 [4]): 93 µM
interaction with OAT1 in in vitro assays (OAT1 [4]): directly interacting with OAT1

O=C(O)c1c[nH]c2ccccc12 [indole-3-carboxylic acid]
change in plasma of the Oat3KO (OAT3 [1]): accumulate in the plasma

COc1cc(N)c(Cl)cc1C(=O)NC1CCN(CCCOc2ccc(F)cc2)CC1OC (stereo not drawn) [Cisapride]
IC50 OAT3 (OAT3 [5]): No ihhibition
IC50 OAT1 (OAT1 [3]): No inhibition

C[C@H](CCC(=O)O)[C@H]1CC[C@H]2[C@@H]3[C@H](O)C[C@@H]4C[C@H](O)CC[C@]4(C)[C@H]3C[C@H](O)[C@]12C [cholate]
increase in plasma of the Oat3KO (OAT3 [1]; significantly altered): ~160 fold

CCCCN(CCCC)CCC(O)c1cc2c(Cl)cc(Cl)cc2c2cc(C(F)(F)F)ccc12 (stereo not drawn) [Halofantrine]
IC50 OAT1 (OAT1 [6]): No inhibition
IC50 OAT3 (OAT3 [5]): No inhibition

O=S(=O)(O)Oc1c[nH]c2ccccc12 [3-indoxyl sulfate]
change in plasma of the Oat3KO (OAT3 [1]): accumulate in the plasma

NCCc1c[nH]c2ccc(O)cc12 [serotonin]
change in plasma of the Oat3KO (OAT3 [1]): accumulate in the plasma

CCCN(CCC)S(=O)(=O)c1ccc(C(=O)O)cc1 [Probenecid]
IC50 (OAT3 [2]): 33 µM

C[C@H](CCC(=O)NCCS(=O)(=O)O)[C@H]1CC[C@H]2[C@@H]3[C@H](O)C[C@@H]4C[C@H](O)CC[C@]4(C)[C@H]3CC[C@]12C [taurochenodeoxycholate]
increase in plasma of the Oat3KO (OAT3 [1]; did not reach statistical significance): ~30 fold

C[C@H](CCC(=O)O)[C@H]1CC[C@H]2[C@@H]3[C@@H](O)[C@@H](O)[C@@H]4C[C@H](O)CC[C@]4(C)[C@H]3CC[C@]12C [beta-muricholate]
increase in plasma of the Oat3KO (OAT3 [1]; significantly altered): over 24 fold

C[C@H](CCC(=O)NCCS(=O)(=O)O)[C@H]1CC[C@H]2[C@@H]3[C@@H](O)[C@@H](O)[C@@H]4C[C@H](O)CC[C@]4(C)[C@H]3CC[C@]12C [tauro-beta-muricholate]
change in plasma of the Oat3KO (OAT3 [1]; [10]): increased

equol sulfate
increase in plasma of the Oat3KO (OAT3 [1]; significantly altered): more than 7 fold

O=C(O)C(O)Cc1c[nH]c2ccccc12 (stereo not drawn) [indolelactate]
change in plasma of the Oat3KO (OAT3 [7]): accumulate in the plasma

Cc1nc2n(c(=O)c1CCN1CCC(c3noc4cc(F)ccc34)CC1)CCCC2O (stereo not drawn) [Paliperidone]
IC50 (OAT3 [2]): 260 µM
IC50 (OAT1 [8]): 1080 µM

CN/C(=N/CCSCc1nc[nH]c1C)NC#N [cimetidine]
affinity for OAT1 compared to OAT3, fold less (OAT1 [9]): roughly 10 fold

CC(=O)N[C@@H](Cc1c[nH]c2ccccc12)C(=O)O [N-acetyltryptophan]
change in plasma of the Oat3KO (OAT3 [1]): accumulate in the plasma

CC(=O)N[C@@H](CC(=O)c1ccccc1N)C(=O)O [N-acetylkynurenine]
change in plasma of the Oat3KO (OAT3 [1]): accumulate in the plasma

C[C@H](CCC(=O)NCCS(=O)(=O)O)[C@H]1CC[C@H]2[C@@H]3CC[C@@H]4C[C@H](O)CC[C@]4(C)[C@H]3C[C@H](O)[C@]12C [taurodeoxycholate]
change in plasma of the Oat3KO (OAT3 [1]; [10]): increased over ten-fold

Cc1ccc(OS(=O)(=O)O)cc1 [p-cresol sulfate]
change in plasma of the Oat3KO (OAT3 [1]): significantly increased

C[C@H](CCC(=O)NCC(=O)O)[C@H]1CC[C@H]2[C@@H]3[C@H](O)C[C@@H]4C[C@H](O)CC[C@]4(C)[C@H]3C[C@H](O)[C@]12C [glycocholate]
change in plasma of the Oat3KO (OAT3 [1]; [10]): increased

C[C@H](CCC(=O)O)[C@H]1CC[C@H]2[C@@H]3[C@H](O)C[C@@H]4C[C@H](O)CC[C@]4(C)[C@H]3CC[C@]12C [chenodeoxycholate]
change in plasma of the Oat3KO (OAT3 [1]; [10]): increased

CN(C)C(=O)C(CCN1CCC(O)(c2ccc(Cl)cc2)CC1)(c1ccccc1)c1ccccc1 [Loperamide]
IC50 OAT1 (OAT1 [6]): No significant
IC50 (OAT3 [2]): 95 µM

O=C(O)CCCCCCCCCCCCC(=O)O [tetradecanedioate]
change in plasma of the Oat3KO (OAT3 [1]): altered

C[C@H](CCC(=O)NCCS(=O)(=O)O)[C@H]1CC[C@H]2[C@@H]3[C@@H](O)C[C@@H]4C[C@H](O)CC[C@]4(C)[C@H]3CC[C@]12C [tauroursodeoxycholate]
change in plasma of the Oat3KO (OAT3 [1]; [10]): increased over ten-fold

CCCCC[C@H](O)/C=C/[C@H]1[C@H](O)CC(=O)[C@@H]1CCCCCCC(=O)O [prostaglandin E1]
Ki (OAT1 [4]): 12 µM
interaction with OAT1 in in vitro assays (OAT1 [4]): directly interacting with OAT1

CCCCCC/C=C\CCCCCCCC(=O)O [palmitoleic acid]
Ki (OAT1 [4]): 200 µM
interaction with OAT1 in in vitro assays (OAT1 [4]): directly interacting with OAT1

O=C(O)CCCCCCCCCCCCCCCO [16-hydroxy-hexadecanoic acid]
Ki (OAT1 [4]): 13 µM
interaction with OAT1 in in vitro assays (OAT1 [4]): directly interacting with OAT1

equol glucuronide
increase in plasma of the Oat3KO (OAT3 [1]; significantly altered): more than 42 fold

C[C@H](CCC(=O)O)[C@H]1CC[C@H]2[C@@H]3[C@@H](O)C[C@@H]4C[C@H](O)CC[C@]4(C)[C@H]3CC[C@]12C [ursodeoxycholate]
change in plasma of the Oat3KO (OAT3 [1]): significantly increased

C[C@H](CCC(=O)NCCS(=O)(=O)[O-])[C@H]1CC[C@H]2[C@@H]3C[C@H](O)[C@@H]4C[C@H](O)CC[C@]4(C)[C@H]3CC[C@]12C.[Na+] [taurohyodeoxycholic acid]
change in plasma of the Oat3KO (OAT3 [1]; [10]): increased over ten-fold

NC(=O)C(c1ccccc1)(c1ccccc1)[C@@H]1CCN(CCc2ccc3c(c2)CCO3)C1 [Darifenacin]
IC50 (OAT3 [2]): 198 µM
IC50 (OAT1 [8]): 807 µM

Reference: patent US11004539B2, “Predicting metabolic side effects of transported drugs” (The Regents of the University of California, priority 2016, dated 2021)
